Molecular target: T1, Cdk2(2-298) (Homo sapiens, UniProt P24941)
T1 construct: Biotinylated N-terminal avi-tagged Cdk2(2-298) or Cdk1(1-297) was immobilized
Assay: Surface Plasmon Resonance (SPR) compound interaction, Biacore 8K
Type: binding
Settings: single-cycle kinetics (SCK, "S"), dissociation 1800 sec, read-out: Activity rating (KD)
Experimental: Compound interaction was profiled using a Biacore 8K instrument (Cytiva). Biotinylated N-terminal avi-tagged Cdk2(2-298) or Cdk1(1-297) was immobilized on a series S sensor Chip SA at a capture level between 2500 RU and 3000 RU (Cdk2) or 7000 RU (Cdk1) in buffer (25 mM HEPES, 150 mM NaCl, 0.05% Tween20, pH 7.5). A compound dilution plate (8 concentrations, 3-fold dilution) in DMSO was prepared (100× assay concentration). From this plate, compound DMSO stock solution was transferred into buffer, yielding a final DMSO concentration of 1% in assay. The remaining buffer was supplemented with 1% DMSO. Compounds were injected in a series of increasing concentrations in multi-cycle kinetics (MCK, “M”) or single-cycle kinetics (SCK, “S”) mode at a flow rate of 30 μl/min for 120 sec and dissociation was profiled for 180 sec (MCK) or 1800 sec (SCK). Data were analysed using Biacore Insight Evaluation Software (Cytiva).

N[C@H]1CC[C@H](Nc2nccc(-c3ccccc3Oc3ccc(NS(=O)(=O)c4ccccc4)cc3F)n2)CC1 [Compound 1, N-[4-[2-[2-[(1r,4r)(4-Aminocyclohexyl)amino]pyrimidin-4-yl]phenoxy]-3-fluoro-phenyl] benzenesulfonamide]
Kd: 0.011 to 0.1 µM

O=S(=O)(Nc1ccc(Oc2ccccc2-c2ccnc(N[C@H]3CCCNC3)n2)c(F)c1)c1ccccc1 [Compound 2, N-[3-Fluoro-4-[2-[2-[[(3S)-3-piperidyl]amino]pyrimidin-4-yl]phenoxy]phenyl] benzenesulfonamide]
Kd: 1 to 5 µM

N[C@H]1CC[C@H](Nc2nccc(-c3ccccc3Oc3ccc(NS(=O)(=O)c4ccccc4Cl)cc3F)n2)CC1 [Compound 3, N-[4-[2-[2-[(1r,4r)(4-Aminocyclohexyl)amino]pyrimidin-4-yl]phenoxy]-3-fluorophenyl] 2-chlorobenzenesulfonamide]
Kd: 0.011 to 0.1 µM

N[C@H]1CC[C@H](Nc2nccc(-c3ccccc3Oc3ccc(NS(=O)(=O)c4cccc5ccccc45)cc3F)n2)CC1 [Compound 4, N-[4-[2-[2-[(1r,4r)(4-Aminocyclohexyl)amino]pyrimidin-4-yl]phenoxy]-3-fluorophenyl] naphthalene-1-sulfonamide]
Kd: 0.1 to 1 µM

O=S(=O)(Nc1ccc(Oc2ccccc2-c2ccnc(N[C@H]3CCCNC3)n2)c(F)c1)c1ccccc1Cl [Compound 5, N-[3-Fluoro-4-[2-[2-[[(3S)-3-piperidyl]amino]pyrimidin-4-yl]phenoxy]phenyl] 2-chlorobenzenesulfonamide]
Kd: ≤ 0.01 µM

O=S(=O)(Nc1ccc(Oc2ccccc2-c2ccnc(N[C@H]3CCCNC3)n2)c(F)c1)c1cccc2ccccc12 [Compound 6, N-[3-Fluoro-4-[2-[2-[[(3S)-3-piperidyl]amino]pyrimidin-4-yl]phenoxy]phenyl] naphthalene-1-sulfonamide]
Kd: 0.1 to 1 µM

Cc1ccc(Oc2ccc(NS(=O)(=O)c3ccccc3Cl)cc2F)c(-c2ccnc(N[C@H]3CC[C@H](N)CC3)n2)c1 [Compound 7, N-[4-[2-[2-[(1r,4r)(4-Aminocyclohexyl)amino]pyrimidin-4-yl]-4-methylphenoxy]-3-fluorophenyl] 2-chlorobenzenesulfonamide]
Kd: 0.011 to 0.1 µM

N[C@H]1CC[C@H](Nc2nccc(-c3cc(C(F)(F)F)ccc3Oc3ccc(NS(=O)(=O)c4ccccc4Cl)cc3F)n2)CC1 [Compound 8, N-[4-[2-[2-[(1r,4r)(4-Aminocyclohexyl)amino]pyrimidin-4-yl]-4-(trifluoromethyl)phenoxy]-3-fluorophenyl] 2-chlorobenzenesulfonamide]
Kd: 0.011 to 0.1 µM

Cc1ccc(-c2ccnc(N[C@H]3CC[C@H](N)CC3)n2)c(Oc2ccc(NS(=O)(=O)c3ccccc3Cl)cc2F)c1 [Compound 9, N-[4-[2-[2-[(1r,4r)(4-Aminocyclohexyl)amino]pyrimidin-4-yl]-5-methylphenoxy]-3-fluorophenyl] 2-chlorobenzenesulfonamide]
Kd: 0.011 to 0.1 µM

N#Cc1ccc(Oc2ccc(NS(=O)(=O)c3ccccc3Cl)cc2F)c(-c2ccnc(N[C@H]3CC[C@H](N)CC3)n2)c1 [Compound 10, N-[4-[2-[2-[(1r,4r)(4-Aminocyclohexyl)amino]pyrimidin-4-yl]-4-cyanophenoxy]-3-fluorophenyl] 2-chlorobenzenesulfonamide]
Kd: 0.011 to 0.1 µM

CC(C)(C)c1ccc(-c2ccnc(N[C@H]3CC[C@H](N)CC3)n2)c(Oc2ccc(NS(=O)(=O)c3ccccc3Cl)cc2F)c1 [Compound 11, N-[4-[2-[2-[(1r,4r)(4-Aminocyclohexyl)amino]pyrimidin-4-yl]-5-(1,1-dimethylethyl)phenoxy]-3-fluorophenyl] 2-chlorobenzenesulfonamide]
Kd: 0.011 to 0.1 µM

N[C@H]1CC[C@H](Nc2nccc(-c3ccc(I)cc3Oc3ccc(NS(=O)(=O)c4ccccc4Cl)cc3F)n2)CC1 [Compound 16, N-[4-[2-[2-[(1r,4r)(4-Aminocyclohexyl)amino]pyrimidin-4-yl]-5-iodophenoxy]-3-fluorophenyl] 2-chlorobenzenesulfonamide]
Kd: 0.011 to 0.1 µM

CCc1ccc(-c2ccnc(N[C@H]3CC[C@H](N)CC3)n2)c(Oc2ccc(NS(=O)(=O)c3ccccc3Cl)cc2F)c1 [Compound 17, N-[4-[2-[2-[(1r,4r)(4-Aminocyclohexyl)amino]pyrimidin-4-yl]-5-ethylphenoxy]-3-fluorophenyl] 2-chlorobenzenesulfonamide]
Kd: 0.011 to 0.1 µM

N[C@H]1CC[C@H](Nc2nccc(-c3ccc(-c4ccccc4)cc3Oc3ccc(NS(=O)(=O)c4ccccc4Cl)cc3F)n2)CC1 [Compound 18, N-[4-[2-[2-[(1r,4r)(4-Aminocyclohexyl)amino]pyrimidin-4-yl]-5-phenylphenoxy]-3-fluorophenyl] 2-chlorobenzenesulfonamide]
Kd: > 5 µM

N[C@H]1CC[C@H](Nc2nccc(-c3ccc(C4CC4)cc3Oc3ccc(NS(=O)(=O)c4ccccc4Cl)cc3F)n2)CC1 [Compound 19, N-[4-[2-[2-[(1r,4r)(4-Aminocyclohexyl)amino]pyrimidin-4-yl]-5-cyclopropylphenoxy]-3-fluorophenyl] 2-chlorobenzenesulfonamide]
Kd: 0.011 to 0.1 µM

CC(C)c1ccc(-c2ccnc(N[C@H]3CC[C@H](N)CC3)n2)c(Oc2ccc(NS(=O)(=O)c3ccccc3Cl)cc2F)c1 [Compound 20, N-[4-[2-[2-[(1r,4r)(4-Aminocyclohexyl)amino]pyrimidin-4-yl]-5-(1-methylethyl)phenoxy]-3-fluorophenyl] 2-chlorobenzenesulfonamide]
Kd: 0.011 to 0.1 µM

C=Cc1ccc(-c2ccnc(N[C@H]3CC[C@H](N)CC3)n2)c(Oc2ccc(NS(=O)(=O)c3ccccc3Cl)cc2F)c1 [Compound 21, N-[4-[2-[2-[(1r,4r)(4-Aminocyclohexyl)amino]pyrimidin-4-yl]-5-ethenylphenoxy]-3-fluorophenyl] 2-chlorobenzenesulfonamide]
Kd: 0.011 to 0.1 µM

N[C@H]1CC[C@H](Nc2nccc(-c3ccc(C4CCCCC4)cc3Oc3ccc(NS(=O)(=O)c4ccccc4Cl)cc3F)n2)CC1 [Compound 22, N-[4-[2-[2-[(1r,4r)(4-Aminocyclohexyl)amino]pyrimidin-4-yl]-5-cyclohexylphenoxy]-3-fluorophenyl] 2-chlorobenzenesulfonamide]
Kd: 0.011 to 0.1 µM

N[C@H]1CC[C@H](Nc2nccc(-c3cc4ccccc4cc3Oc3ccc(NS(=O)(=O)c4ccccc4Cl)cc3F)n2)CC1 [Compound 23, N-[4-[2-[2-[(1r,4r)(4-Aminocyclohexyl)amino]pyrimidin-4-yl]naphthyl-3-oxy]-3-fluorophenyl] 2-chlorobenzenesulfonamide]
Kd: ≤ 0.01 µM

N[C@H]1CC[C@H](Nc2nccc(-c3cnccc3Oc3ccc(NS(=O)(=O)c4ccccc4Cl)cc3F)n2)CC1 [Compound 24, N-[4-[[3-[2-(1r,4r)[(4-aminocyclohexyl)amino]pyrimidin-4-yl]-4-pyridyl]oxy]-3-fluoro-phenyl]-2-chloro-benzenesulfonamide]
Kd: ≤ 0.01 µM

O=S(=O)(Nc1ccc(Oc2ccncc2-c2ccnc(N[C@H]3CCCNC3)n2)cc1F)c1ccccc1Cl [Compound 25, N-[2-Fluoro-4-[[3-[2-[[(3S)-3-piperidyl]amino]pyrimidin-4-yl]-4-pyridyl]oxy]phenyl] 2-chlorobenzenesulfonamide]
Kd: 0.011 to 0.1 µM

N[C@H]1CC[C@H](Nc2nccc(-c3cnccc3Oc3ccc(NS(=O)(=O)c4c(F)cccc4F)cc3F)n2)CC1 [Compound 26, N-[4-[[3-[2-[(1r,4r)(4-Aminocyclohexyl)amino]pyrimidin-4-yl]-4-pyridyl]oxy]-3-fluoro-phenyl] 2,6-difluoro-benzenesulfonamide]
Kd: ≤ 0.01 µM

COc1ccccc1S(=O)(=O)Nc1ccc(Oc2ccncc2-c2ccnc(N[C@H]3CC[C@H](N)CC3)n2)c(F)c1 [Compound 27, N-(4-((3-(2-((1r,4r)-4-aminocyclohexyl)amino)pyrimidin-4-yl)pyridin-4-yloxy)-3-fluorophenyl) 2-methoxybenzenesulfonamide]
Kd: 0.011 to 0.1 µM

COc1ccc(Br)cc1S(=O)(=O)Nc1ccc(Oc2ccncc2-c2ccnc(N[C@H]3CC[C@H](N)CC3)n2)c(F)c1 [Compound 28, N-(4-((3-(2-((1r,4r)-4-aminocyclohexyl)amino)pyrimidin-4-yl)pyridin-4-yloxy)-3-fluorophenyl) 5-bromo-2-methoxybenzenesulfonamide]
Kd: 0.1 to 1 µM

N[C@H]1CC[C@H](Nc2nccc(-c3cnccc3Oc3ccc(NS(=O)(=O)c4cccs4)cc3F)n2)CC1 [Compound 29]
Kd: 0.011 to 0.1 µM

N#Cc1ccc(S(=O)(=O)Nc2ccc(Oc3ccncc3-c3ccnc(N[C@H]4CC[C@H](N)CC4)n3)c(F)c2)cc1 [Compound 30, N-(4-((3-(2-((1r,4r)-4-aminocyclohexyl)amino)pyrimidin-4-yl)pyridin-4-yloxy)-3-fluorophenyl) 4-cyanobenzenesulfonamide]
Kd: 0.1 to 1 µM

N[C@H]1CC[C@H](Nc2nccc(-c3cnccc3Oc3ccc(NS(=O)(=O)c4csc5ccccc45)cc3F)n2)CC1 [Compound 31, N-(4-((3-(2-((1r,4r)-4-aminocyclohexyl)amino)pyrimidin-4-yl)pyridin-4-yloxy)-3-fluorophenyl) benzo[b]thiophene-3-sulfonamide]
Kd: 0.011 to 0.1 µM

N[C@H]1CC[C@H](Nc2nccc(-c3cnccc3Oc3ccc(NS(=O)(=O)c4ccccc4)c(C(F)(F)F)c3)n2)CC1 [Compound 32, N-(4-((3-(2-(((1r,4r)-4-Aminocyclohexyl)amino)pyrimidin-4-yl)pyridin-4-yl)oxy)-2-(trifluoromethyl)phenyl) benzenesulfonamide]
Kd: 0.1 to 1 µM
